Test results as given in PubChem BioAssay (NCI).
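A five-concentration, 48-hour dose response in 96-well plates underlies each endpoint, interpolated linearly between surrounding concentrations. GI50 is the concentration that inhibits growth by half. TGI marks complete inhibition of growth.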

Legend:
Assay in all cases: inhibition of tumour cell growth, NCI panel, 48 h
[1] = test system: SF-268 CNS
[2] = test system: NCI-H23 lung
[3] = test system: SK-MEL-5 melanoma
[4] = test system: UO-31 renal
[5] = test system: SF-539 CNS
[6] = test system: NCI-H226 lung
[7] = test system: OVCAR-4 ovarian
[8] = test system: SN12C renal
[9] = test system: TK-10 renal
[10] = test system: MALME-3M melanoma
[11] = test system: HOP-92 NSCLC
[12] = test system: BT-549 breast
[13] = test system: A498 renal
[14] = test system: MDA-MB-435
[15] = test system: COLO 205 colon
[16] = test system: K-562 leukemia
[17] = test system: DU-145 prostate
[18] = test system: KM12 colon
[19] = test system: HCT-116 colon
[20] = test system: SK-MEL-28 melanoma
[21] = test system: LOX IMVI melanoma
[22] = test system: M14 melanoma
[23] = test system: HCT-15 colon
[24] = test system: T-47D breast
[25] = test system: HCC-2998 colon
[26] = test system: NCI-H460 lung
[27] = test system: CAKI-1 renal
[28] = test system: HOP-62 NSCLC
[29] = test system: SW-620 colon
[30] = test system: HS 578T breast
[31] = test system: A549 NSCLC
[32] = test system: UACC-257 melanoma
[33] = test system: MCF7 breast
[34] = test system: RPMI-8226 leukemia
[35] = test system: OVCAR-5 ovarian
[36] = test system: SF-295 CNS
[37] = test system: UACC-62 melanoma
[38] = test system: SNB-75 CNS
[39] = test system: HL-60(TB) leukemia
[40] = test system: SNB-19 CNS
[41] = test system: PC-3 prostate
[42] = test system: ACHN renal
[43] = test system: OVCAR-8 ovarian
[44] = test system: SK-OV-3 ovarian
[45] = test system: OVCAR-3 ovarian
[46] = test system: RXF 393 renal
[47] = test system: MOLT-4 leukemia
[48] = test system: SR leukemia
[49] = test system: U251 CNS
[50] = test system: SK-MEL-2 melanoma
[51] = test system: IGROV1 ovarian
[52] = test system: 786-0 renal
[53] = test system: MDA-MB-231 breast
[54] = test system: HT29 colon
[55] = test system: CCRF-CEM leukemia
[56] = test system: MDA-N
[57] = test system: NCI-H522 lung
[58] = test system: NCI/ADR-RES ovarian
[59] = test system: EKVX NSCLC

SMILES: NC(C(=O)O)c1cc(=O)[nH]o1 (stereo not given)
- TGI [1]: > 100 µM
- TGI [2]: > 100 µM
- TGI [3]: > 100 µM
- TGI [4]: > 100 µM
- TGI [5]: > 100 µM
- TGI [6]: > 100 µM
- TGI [7]: > 100 µM
- TGI [8]: > 100 µM
- TGI [9]: > 100 µM
- TGI [10]: > 100 µM
- TGI [11]: > 100 µM
- TGI [12]: > 69.9 µM
- TGI [13]: > 100 µM
- TGI [14]: > 100 µM
- TGI [15]: > 100 µM
- TGI [16]: > 100 µM
- TGI [17]: > 100 µM
- TGI [18]: > 100 µM
- TGI [19]: > 100 µM
- TGI [20]: > 100 µM
- TGI [21]: > 100 µM
- TGI [22]: > 100 µM
- TGI [23]: > 100 µM
- TGI [24]: > 100 µM
- TGI [25]: > 100 µM
- TGI [26]: > 100 µM
- TGI [27]: > 100 µM
- TGI [28]: > 100 µM
- TGI [29]: > 100 µM
- TGI [30]: > 100 µM
- TGI [31]: > 100 µM
- TGI [32]: > 100 µM
- TGI [33]: > 100 µM
- TGI [34]: > 100 µM
- TGI [35]: > 100 µM
- TGI [36]: > 100 µM
- TGI [37]: > 100 µM
- TGI [38]: > 100 µM
- TGI [39]: > 100 µM
- TGI [40]: > 100 µM
- TGI [41]: > 100 µM
- TGI [42]: > 100 µM
- TGI [43]: > 100 µM
- TGI [44]: > 100 µM
- TGI [45]: > 100 µM
- TGI [46]: > 100 µM
- TGI [47]: > 100 µM
- TGI [48]: > 100 µM
- TGI [49]: > 100 µM
- TGI [50]: > 100 µM
- TGI [51]: > 100 µM
- TGI [52]: > 100 µM
- TGI [53]: > 100 µM
- TGI [54]: > 100 µM
- TGI [55]: > 100 µM
- TGI [56]: > 100 µM
- TGI [57]: > 100 µM
- TGI [58]: > 100 µM
- TGI [59]: > 100 µM

SMILES: O=c1c(Br)c(-c2ccccc2)[nH]c2ccccc12
- GI50 [1]: > 100 µM
- TGI [1]: > 100 µM
- TGI [2]: > 100 µM
- GI50 [3]: 13.6 µM
- TGI [3]: 29.9 µM
- TGI [4]: 6.58 µM
- TGI [5]: > 100 µM
- GI50 [6]: 37.1 µM
- TGI [6]: > 100 µM
- TGI [7]: > 100 µM
- GI50 [8]: > 100 µM
- TGI [8]: > 100 µM
- TGI [9]: > 100 µM
- TGI [10]: > 100 µM
- GI50 [11]: 19 µM
- TGI [11]: > 100 µM
- TGI [12]: > 100 µM
- GI50 [13]: 31.6 µM
- TGI [13]: > 100 µM
- TGI [14]: > 100 µM
- TGI [15]: > 100 µM
- GI50 [16]: 28.9 µM
- TGI [16]: > 100 µM
- TGI [17]: > 100 µM
- GI50 [18]: 5.63 µM
- TGI [18]: 63.8 µM
- TGI [19]: > 100 µM
- TGI [20]: > 100 µM
- TGI [21]: > 100 µM
- TGI [22]: > 100 µM
- TGI [23]: > 100 µM
- GI50 [24]: 36.4 µM
- TGI [24]: > 100 µM
- GI50 [25]: > 100 µM
- TGI [25]: > 100 µM
- GI50 [26]: 3.54 µM
- TGI [26]: > 100 µM
- GI50 [27]: 0.066 µM
- TGI [27]: 0.892 µM
- TGI [28]: > 100 µM
- TGI [29]: > 100 µM
- TGI [30]: > 100 µM
- GI50 [31]: 0.168 µM
- TGI [31]: 1.12 µM
- TGI [32]: 98 µM
- TGI [33]: > 100 µM
- TGI [34]: > 100 µM
- GI50 [35]: > 100 µM
- TGI [35]: > 100 µM
- GI50 [36]: 32.9 µM
- TGI [36]: > 100 µM
- TGI [37]: > 100 µM
- GI50 [38]: 63.1 µM
- TGI [38]: > 100 µM
- TGI [39]: 56.6 µM
- GI50 [40]: > 100 µM
- TGI [40]: > 100 µM
- GI50 [41]: 23.6 µM
- TGI [41]: > 78.3 µM
- TGI [42]: > 100 µM
- TGI [43]: > 100 µM
- TGI [44]: > 100 µM
- TGI [45]: > 100 µM
- TGI [46]: > 100 µM
- GI50 [47]: 20.8 µM
- TGI [47]: > 75.6 µM
- TGI [48]: > 100 µM
- TGI [49]: > 100 µM
- GI50 [50]: > 100 µM
- TGI [50]: > 100 µM
- GI50 [51]: > 89.4 µM
- TGI [51]: > 100 µM
- TGI [53]: 11.8 µM
- TGI [54]: > 100 µM
- TGI [55]: > 100 µM
- TGI [56]: > 85.4 µM
- GI50 [57]: > 100 µM
- TGI [57]: > 100 µM
- TGI [58]: > 100 µM
- GI50 [59]: 41.5 µM
- TGI [59]: > 100 µM
